# Measured values: patent US20250325543A1, “EGFR TKIs FOR USE IN THE TREATMENT OF NON-SMALL LUNG CANCER” (ASTRAZENECA AB, priority 2020, published 2025)
# Legend:
# [1] = system: stage IB-IIIA EGFRm NSCLC patients; test: ADAURA phase 3 double-blind, randomized, placebo-controlled study of adjuvant AZD9291 after complete tumour resection; assay type: in vivo, human; details: for DFS HR (95% CI) / reduction in the risk of disease recurrence or death: osimertinib vs placebo
# Protocol: Adjuvant chemotherapy should have consisted of a platinum based doublet given for a maximum of 4 cycles.
# Patients were randomised 1:1, to receive either AZD9291 or placebo. […] Patients were randomised within 10 weeks following complete surgical resection if adjuvant chemotherapy was not administered, within 26 weeks following surgery if adjuvant chemotherapy was administered.
# Accounting for patients who are found to have wild type EGFR, sample attrition and 10% screen fail rate for other reasons, it was estimated that approximately 3200 patients would be screened to randomize approximately 700 patients. Approximately 60% of patients were recruited from Asia and 40% from non-Asian countries. The proportion of patients randomized with stage 1B cancer was approximately 30% and the proportion of patients randomized with stage II-IIIA cancer was approximately 70%. Patients were stratified at randomization by stage (IB vs II vs IIIA), mutation type (Ex19Del/L858R either alone or in combination with other EGFR mutations) as confirmed by a central laboratory using a tissue based test, and race (Asian/non-Asian).
# Patients undergo regular CT scan (chest and abdomen including liver and adrenal glands) with additional anatomy imaging, as indicated by signs and symptoms of the patient, for disease recurrence. Disease free survival (DFS) shall be measured from the date of randomization until date of disease recurrence or death (from any cause) in the absence of recurrence by investigational site assessment.
# Male and female patients aged 18 years and over (patients from Japan/Taiwan aged at least 20 years) with histologically confirmed diagnosis of primary non-squamous non-small cell carcinoma of the lung, with complete surgical resection of the primary tumour, and who were classified post-operatively as stage IB, II or IIIA on the basis of pathologic criteria were eligible for this study (stage IB patients were excluded in Japan). Recruitment of patients with stage IB disease was closed when approximately 210 (30%) had been randomized and recruitment of patients with stage II-IIIA disease was closed when approximately […] (70%) had been randomized. Patients were confirmed to have a tumour that harbours one of the most common EGFR mutations known to be associated with EGFR-TKI sensitivity (Ex19Del; L858R) either alone or in combination with other EGFR mutations as confirmed by a central test.
# Treatment with AZD9291 (80 mg once daily) or placebo commenced following randomization. Patients will continue on randomised treatment until recurrence of disease, treatment discontinuation criterion is met or treatment is completed.
# AZD9291 (80 mg orally, once daily) or matching placebo, in accordance with the randomization schedule, was administered.
# Disease-free survival is the primary endpoint in this study and is defined as the time from the date of randomization until the date of disease recurrence or death from any cause in the absence of disease recurrence. Disease recurrence is defined as evidence of disease recurrence on CT or MRI scan and/or pathological disease on biopsy by investigational site assessment. The primary population is the stage II/IIIA patients.
# DFS rate at 2, 3, 4 and 5 years is defined as the proportion of patients alive and disease free at 2, 3, 4 and 5 years, respectively, estimated from Kaplan Meier plots of the primary endpoint of DFS at the time of the primary analysis.
# DFS in the subset of patients with stage II-IIIA cancer will be analysed using a log rank test stratified by stage (II, IIIA), mutation type (Ex19Del, L858R either alone or in combination with other EGFR mutations) and race (Asian, Non-Asian) for the generation of the p-value and using the Breslow approach for handling ties.
# [2] = system: patients with advanced mutation-positive EGFR (Ex19del or L858R) NSCLC; details: cited from earlier work
# [3] = Stage IB/II/IIIA (overall population)
# [4] = Stage IB/II/IIIA (overall population), listed as osimertinib
# [5] = Stage II/IIIA patient population, immature OS (5% maturity)
# [6] = patients with CNS metastases on a baseline brain scan, vs standard EGFR-TKIs
structure (smiles),measurement,setting,value
"C=CC(=O)Nc1cc(Nc2nccc(-c3cn(C)c4ccccc34)n2)c(OC)cc1N(C)CCN(C)C [Osimertinib, N-(2-{2-dimethylaminoethyl-methylamino}-4-methoxy-5-{[4-(1-methylindol-3-yl)pyrimidin-2-yl]amino}phenyl) prop-2-enamide]","2 year DFS rate, % (95% CI)",[1]; Adjuvant chemotherapy received,88.3%
same,"2 year DFS rate, % (95% CI)",[1]; No adjuvant chemotherapy,89.2%
same,"2 year DFS rate, % (95% CI)",[1]; Stage IB,"87 (77, 93) %"
same,"Median DFS, months (95% CI)",[1]; Stage IB,"NR (NC, NC)"
same,"2 year DFS rate, % (95% CI)",[1]; [3],88.8%
same,"2 year DFS rate, % (95% CI)",[1]; [4],89%
same,"2 year DFS rate, % (95% CI)",[1]; Stage II,"91 (82, 95)^ %"
same,"Median DFS, months (95% CI)",[1]; Stage II,"NR (NC, NC)"
same,"2 year DFS rate, % (95% CI)",[1]; Stage II-IIIA,89.5%
same,deaths (% of patients),[1]; [5],3%
same,deaths (number of patients),[1]; [5],8 deaths
same,"2 year DFS rate, % (95% CI)",[1]; Stage IIIA,"88 (79, 94)^ %"
same,"Median DFS, months (95% CI)",[1]; Stage IIIA,"38.8 (38.6, NC)^ months"
same,overall survival (in words),[1]; immature OS (5% maturity),trend towards survival favouring osimertinib
same,DFS HR (95% CI),[1]; Stage IB,"0.50 (0.27, 0.94)"
same,DFS HR (95% CI),[1]; [3],"0.21 (0.16, 0.28);"
same,DFS HR (95% CI),[1]; [4],0.21
same,DFS HR (95% CI),[1]; Stage II,"0.17 (0.08, 0.31)"
same,DFS HR (95% CI),[1]; Stage II-IIIA,"0.17 (0.12, 0.23);"
same,DFS HR (95% CI),"[1]; Stage II-IIIA, listed as osimertinib","0.17 (0.12, 0.23)"
same,DFS HR (95% CI),[1]; Stage IIIA,"0.12 (0.07, 0.20)"
same,DFS HR (95% CI),[1]; adjuvant chemotherapy received,0.17
same,DFS HR (95% CI),[1]; no adjuvant chemotherapy,0.17
same,reduction in the risk of disease recurrence or death,[1]; overall population,79%
same,reduction in the risk of disease recurrence or death,[1]; primary population of stage II/IIIA patients,83%
same,improvement in DFS (in words),[1]; regardless of whether patients received prior adjuvant chemotherapy,consistent improvement in DFS
same,improvement in disease free survival (DFS) (in words),"[1]; stage IB/II/IIIA EGFRm NSCLC, adjuvant setting",statistically significant and clinically meaningful improvement
same,median overall survival,[2]; first-line therapy,38.6 months
same,median progression free survival (PFS),[2]; first-line therapy,18.9 months
same,"events of CNS progression, % patients",[2]; irrespective of known or treated CNS metastases at trial entry,6%
same,hazard ratio for death,[2]; osimertinib vs comparator group,0.80
same,PFS hazard ratio (HR),[2]; osimertinib vs erlotinib or gefitinib,0.46
same,median CNS PFS,[2]; patients with CNS metastases on a baseline brain scan,not reached
same,CNS PFS HR,[2]; [6],0.48
same,reduction in the risk of CNS progression,[2]; [6],52%
